Reference: article PMC11249626, “Fluorophore-Labeled Pyrrolones Targeting the Intracellular Allosteric Binding Site of the Chemokine Receptor CCR1” (ACS Pharmacology & Translational Science, 2024)
Read-outs that look alike come from different tables or passages of the source.

Experiments:
CCR1 [1] = target: T1, CCR1 (Homo sapiens, UniProt P32246); test: Membrane-based NanoBRET competition assay with 12 (2000 nM) and CCR1_Nluc membranes; type: binding; parameters: Promega pNLF1-C (Nluc) #CCR010TN00; host or cells: HEK293T, transient (PEI); settings: for Ki: read-out: Ki, CCR1 (converted)
T1 sequence (P32246 1-355): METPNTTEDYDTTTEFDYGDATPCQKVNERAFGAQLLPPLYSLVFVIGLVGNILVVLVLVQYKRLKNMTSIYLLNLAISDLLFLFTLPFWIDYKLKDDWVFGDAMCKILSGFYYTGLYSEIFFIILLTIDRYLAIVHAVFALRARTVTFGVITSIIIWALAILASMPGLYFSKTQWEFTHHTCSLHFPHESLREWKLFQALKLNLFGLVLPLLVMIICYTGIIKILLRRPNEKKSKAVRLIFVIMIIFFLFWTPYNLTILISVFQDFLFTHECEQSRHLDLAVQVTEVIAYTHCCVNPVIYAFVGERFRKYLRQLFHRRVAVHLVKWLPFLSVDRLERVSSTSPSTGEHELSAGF

human CCR2b = target: T2, human CCR2b (Homo sapiens, UniProt P41597); test: Membrane-based radioligand binding assay with [3H]-CCR2-RA-[R], U2OS membranes; settings: [3H]CCR2-RA-[R] 6 nM, 25 °C
T2 sequence (P41597 1-360 isoform P41597-2): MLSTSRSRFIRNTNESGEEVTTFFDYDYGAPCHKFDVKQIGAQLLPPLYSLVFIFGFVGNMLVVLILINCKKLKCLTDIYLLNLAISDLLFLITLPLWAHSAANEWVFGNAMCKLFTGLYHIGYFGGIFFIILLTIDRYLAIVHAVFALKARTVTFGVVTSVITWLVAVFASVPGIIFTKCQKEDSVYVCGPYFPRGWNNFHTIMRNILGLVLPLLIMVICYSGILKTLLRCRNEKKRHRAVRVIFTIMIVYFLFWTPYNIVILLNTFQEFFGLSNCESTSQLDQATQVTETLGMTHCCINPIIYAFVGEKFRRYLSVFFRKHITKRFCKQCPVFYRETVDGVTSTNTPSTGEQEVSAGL
Experimental: (§1) Membrane-based radioligand binding assays: Assays were performed according to the published protocol.13 Radioligand binding assays were performed in a 100 µ L reaction volume containing varying concentrations (final concentrations: 0.001 – 10 µM) of compounds 23 and 5, 6 nM [3H]-CCR2-RA-[R] (specific activity 60.6 Ci mmol-1, custom labeled by Vitrax in Placentia, CA, USA), and 15 µg membrane protein, all diluted in assay buffer (50mM Tris-HCl, 5 mM MgCl2, 0.1% CHAPS, at pH 7.4). Membranes were obtained from Tango™ CCR1-bla or Tango™ CCR2-bla osteosarcoma (U2OS) cells stably expressing the human CCR1 ([…]) or human CCR2b (U2OS-CCR2) cells (Invitrogen, Carlsbad, CA, USA). Total binding was determined in the absence of competing ligand, while non -specific binding was determined in the presence of 10 µM CCR2-RA-[R]. After membrane addition, reaction mixtures were incubated for 2 h at 25 °C while shaking. After 2 h, reactions were terminated by harvesting through a 96 -well GF/C filter plate using a PerkinElmer Filtermate harvester (PerkinElmer, Groningen, NL) and ice -cold wash buffer (50mM Tris-HCl, 5 mM MgCl2, 0.1% CHAPS, at pH 7.4). Afterwards, filter plate was dried, and radioactivity was measured in a P-E-2450 Microbeta2 scintillation plate counter (PerkinElmer, Groningen, NL) after addition of 25 µL of Microscint scintillation cocktail (PerkinElmer, Groningen, NL). […]
(§2) Technologies) for 20 min. […]
(§3) Finally, the top 5% of the identified hits were subsequently docked to a homology model of CCR1 (vide infra). After visual examination of the obtained binding modes 24 hit compounds were identified for further investigation .
(§4) Molecular docking: For the docking studies in the course of our virtual screening campaign, the CCR1 protein was […]
(§5) 27, 28 CCR1 structure was optimized using the Quickprep and structure preparation wizard in MOE 24 using CHARMM27 forcefield. The protein was saved in mol2 format and loaded in GOLD.25, 26 The amino acids defining the IABS were listed in a text file to define the docking cavity. 50 GA runs were performed for docking CCR2-RA-[R] (4-[R]) and SN_12 (43), with the generated solutions clustered based on their RMSD with the threshold set to 0.75 Å using the complete linkage method. Docking runs were performed using ChemScore. Flexibility of amino acids Lys63ICL1, Arg1313.50, Leu2406.36 and Arg3078.49 was taken in consideration in the docking runs, with conformational sampling of their side chains being done by the rotamer libraries implemented in GOLD.25, 26 For the docking studies with our ligand-linker conjugates (Figure S1), molecular ligand structures were geometry optimized as neutral molecules by means of Avogadro (Version 1.2.0)29 using the Universal Force Field (UFF) and the Steepest Decent Algorithm until convergence (ΔE = 0).
(§6) CCR113 was used for docking. The compounds were docked by means of AutoDock Vina 1.1.2.30, 31 An exhaustiveness value of 8 and a search space of 22 x 22 x 22 Å³ was applied around the unliganded intracellular allosteric binding site of CCR1. Twenty docking poses were generated for each ligand and inspected manually and according to the docking score.

CCR1 [2] = target: T1, CCR1; test: as above; settings: for Ki: [3H]CCR2-RA-[R] 6 nM, 25 °C
Experimental: as §1, §2, §3, §4, §5, §6

[3] = target: T3, human chemokine receptor CCR2 (Homo sapiens, UniProt P41597); test: Cellular NanoBiT β-arrestin recruitment assay; type: cell-based; settings: in the presence of CCL2 (10 nM), HEK293T cells
T3 construct: expressed in transfected cells; host or cells: HEK293T, transient
Experimental: (PerkinElmer, Groningen, NL).
Cellular NanoBiT β-arrestin recruitment assays: Chemokine-induced β-arrestin-2 recruitment to chemokine receptors CCR1 and CCR2 was monitored using a nanoluciferase complementation -based assay (NanoBiT, Promega). 17-19 5 x 10^6 HEK293T cells were plated in 10 cm dishes and cultured for 24 h before transfection with vectors encoding for the human chemokine receptor CCR1 or CCR2 C-terminally fused with SmBiT and β-arrestin 2 N-terminally fused with LgBiT. 24 h after transfection cells were harvested, distributed into white 96-well plates (5 × 10^4 cells per well) and incubated for 1 h at 37 °C with compound 23 at concentrations ranging from 10 nM to 10 µM. The endogenous chemokine ligand CCL5 (3 nM, for CCR1) or CCL2 (10 nM, for CCR2) was then added, and luminescence generated upon nanoluciferase complementation in the presence of coelenterazine H was measured with a Mithras LB940 luminometer (Berthold Technologies) for 20 min. […]
as §3, §4
27, 28 CCR1 structure was optimized using the Quickprep and structure preparation wizard in MOE 24 using CHARMM27 forcefield. The protein was saved in mol2 format and loaded in GOLD.25, 26 The amino acids defining the IABS were listed in a text file to define the docking cavity. 50 GA runs were performed for docking CCR2-RA-[R] (4-[R]) and SN_12 (43), with the generated solutions clustered based on their RMSD with the threshold set to 0.75 Å using the complete linkage method. Docking runs were performed using ChemScore. […]

[4] = 12 (2000 nM), CCR1_Nluc membranes
[5] = read-out: Ki, CCR2 (radioligand)
[6] = read-out: Ki, CCR1 (radioligand)

T3 sequence (P41597 whole entry): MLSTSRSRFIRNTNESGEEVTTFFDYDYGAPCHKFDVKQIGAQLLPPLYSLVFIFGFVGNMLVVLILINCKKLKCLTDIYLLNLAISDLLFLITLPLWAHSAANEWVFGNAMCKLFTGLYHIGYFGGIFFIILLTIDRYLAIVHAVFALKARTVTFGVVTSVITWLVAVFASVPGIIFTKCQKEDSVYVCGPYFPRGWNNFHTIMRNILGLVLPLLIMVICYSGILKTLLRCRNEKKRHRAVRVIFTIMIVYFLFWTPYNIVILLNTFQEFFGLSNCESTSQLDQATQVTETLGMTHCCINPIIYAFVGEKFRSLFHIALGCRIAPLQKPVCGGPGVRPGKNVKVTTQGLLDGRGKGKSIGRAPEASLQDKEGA

O=C(C1=C(O)C(=O)N(CCc2ccc(O)cc2)C1c1ccc(F)cc1)c1ccccc1 (racemic) [compound 23]
Ki (CCR1 [1]; [4]): 100 nM
CCR1 over CCR2 binding selectivity (CCR1 [1]; NanoBRET competition binding assays): at least 172 fold
Ki (human CCR2b; [5]): 3820 nM
CCR1 over CCR2 binding selectivity (radioligand) (CCR1 [2]): 33 fold
Ki (CCR1 [2]; [6]): 117 nM
IC50 ([3]; read-out: IC50 (CCR2), β-arrestin recruitment): 186000 nM
IC50 ([3]; read-out: pIC50(CCR2), β-arrestin recruitment (converted)): 195000 nM

CC(=O)C1=C(O)C(=O)N(c2ccc(Br)cc2F)C1C1CCCCC1 (stereo not shown) [compound 5, reference compound]
pKi ± SEM, CCR1 (CCR1 [1]; [4]): 7.96 ± 0.10
Ki (CCR1 [1]; [4]): 11.8 nM
Ki (human CCR2b; [5]): 9 nM
Ki (human CCR2b; read-out: pKi, CCR2 (radioligand) (converted)): 7.94 nM
Ki (CCR1 [2]; [6]): 18 nM
Ki (CCR1 [2]; read-out: pKi, CCR1 (radioligand) (converted)): 15.8 nM
